Patent US10323022B2, “Pyrrolidinyl urea, pyrrolidinyl thiourea and pyrrolidinyl guanidine compounds as TrkA kinase inhibitors” (Array BioPharma Inc., priority 2011, dated 2019)

Target: TrkA (Homo sapiens (Human), UniProt P04629)
Test: TrkA Omnia Assay
Type: biochemical
Settings: averaged IC50; 20 nM enzyme, 500 μM ATP, 10 μM peptide substrate
Method in brief: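 Continuous fluorescent kinase read-out (ex 360 nm, em 485 nm) over 70 min, with initial rates fitted to 4- or 5-parameter logistic curves for IC50. Final conditions: 500 μM ATP, 10 μM Omnia Tyr Peptide #4, 20 nM TrkA, MOPS pH 7.5 buffer with MgCl2 and Triton X-100; enzyme and compound preincubated 10 min at ambient temperature.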

Chain of TrkA (P04629 33-796): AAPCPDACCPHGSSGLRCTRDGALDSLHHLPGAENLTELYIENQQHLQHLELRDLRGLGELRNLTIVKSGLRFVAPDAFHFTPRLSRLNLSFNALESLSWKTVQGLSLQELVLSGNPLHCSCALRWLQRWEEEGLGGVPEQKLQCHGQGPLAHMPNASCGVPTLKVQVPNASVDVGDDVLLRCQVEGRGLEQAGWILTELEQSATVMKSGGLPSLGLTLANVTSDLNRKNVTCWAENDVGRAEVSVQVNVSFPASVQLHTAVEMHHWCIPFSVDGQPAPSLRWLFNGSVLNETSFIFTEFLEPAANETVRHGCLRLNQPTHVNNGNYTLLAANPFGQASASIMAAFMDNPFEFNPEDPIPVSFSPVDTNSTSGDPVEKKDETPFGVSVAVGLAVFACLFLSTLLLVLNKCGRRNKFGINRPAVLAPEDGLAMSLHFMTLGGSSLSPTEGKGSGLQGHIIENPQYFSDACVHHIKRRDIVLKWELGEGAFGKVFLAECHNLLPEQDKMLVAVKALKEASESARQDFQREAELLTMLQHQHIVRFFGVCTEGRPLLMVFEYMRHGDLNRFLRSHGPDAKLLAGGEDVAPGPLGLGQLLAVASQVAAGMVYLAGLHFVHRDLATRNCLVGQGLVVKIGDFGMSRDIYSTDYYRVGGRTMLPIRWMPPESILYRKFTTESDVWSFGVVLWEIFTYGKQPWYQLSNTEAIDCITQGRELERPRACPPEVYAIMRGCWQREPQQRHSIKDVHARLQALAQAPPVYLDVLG

COCCN1C[C@@H](NC(=O)Nc2c(C)c(-c3cc(C)n(C)n3)nn2-c2ccccc2)[C@H](c2cc(F)cc(F)c2)C1 [Example 306, 1-((3S,4R)-4-(3,5-difluorophenyl)-1-(2-methoxyethyl)pyrrolidin-3-yl)-3-(1′,4,5′-trimethyl-1-phenyl-1H,1′H-[3,3′-bipyrazol]-5-yl)urea] and COCCN1C[C@@H](NC(=O)Nc2c(C)c(-c3cc(C)n(C)n3)nn2-c2ccccc2)[C@H](c2ccc(F)cc2)C1 [Example 307, 1-((3S,4R)-4-(4-fluorophenyl)-1-(2-methoxyethyl)pyrrolidin-3-yl)-3-(1′,4,5′-trimethyl-1-phenyl-1H,1′H-[3,3′-bipyrazol]-5-yl)urea] cannot be ordered by IC50: under 0.1 µM for the first, under 0.1 µM for the second.

COCCN1C[C@@H](NC(=O)Nc2c(C)c(-c3cc(C)nn3C)nn2-c2ccccc2)[C@H](c2ccc(F)c(F)c2)C1 [Example 308, 1-((3S,4R)-4-(3,4-difluorophenyl)-1-(2-methoxyethyl)pyrrolidin-3-yl)-3-(2′,4,5′-trimethyl-1-phenyl-1H,2′H-[3,3′-bipyrazol]-5-yl)urea] and COCCN1C[C@@H](NC(=O)Nc2c(C)c(-c3ncn(C)n3)nn2-c2ccccc2)[C@H](c2ccc(F)c(F)c2)C1 [Example 347, 1-((3S,4R)-4-(3,4-difluorophenyl)-1-(2-methoxyethyl)pyrrolidin-3-yl)-3-(4-methyl-3-(1-methyl-1H-1,2,4-triazol-3-yl)-1-phenyl-1H-pyrazol-5-yl)urea] cannot be ordered by IC50: under 0.1 µM for the first, under 0.1 µM for the second.

COCCN1C[C@@H](NC(=O)Nc2c(C3CC3)c(-c3cnn(C)c3)nn2-c2ccccc2)[C@H](c2ccc(F)c(F)c2)C1 [Example 309, 1-(4-cyclopropyl-1′-methyl-1-phenyl-1H,1′H-[3,4′-bipyrazol]-5-yl)-3-((3S,4R)-4-(3,4-difluorophenyl)-1-(2-methoxyethyl)pyrrolidin-3-yl)urea] and CCc1c(-c2cnn(C)c2)nn(-c2ccccc2)c1NC(=O)N[C@@H]1CN(CCOC)C[C@H]1c1ccc(F)c(F)c1 [Example 311, 1-((3S,4R)-4-(3,4-difluorophenyl)-1-(2-methoxyethyl)pyrrolidin-3-yl)-3-(4-ethyl-1′-methyl-1-phenyl-1H,1′H-[3,4′-bipyrazol]-5-yl)urea] cannot be ordered by IC50: under 0.1 µM for the first, under 0.1 µM for the second.

Compared with COCCN1C[C@@H](NC(=O)Nc2c(C(C)C)c(-c3cnn(C)c3)nn2-c2ccccc2)[C@H](c2ccc(F)c(F)c2)C1 [Example 310, 1-((3S,4R)-4-(3,4-difluorophenyl)-1-(2-methoxyethyl)pyrrolidin-3-yl)-3-(4-isopropyl-1′-methyl-1-phenyl-1H,1′H-[3,4′-bipyrazol]-5-yl)urea], COCCN1C[C@@H](NC(=O)Nc2c(C)c(-c3cnn(CCO)c3)nn2-c2ccccc2)[C@H](c2ccc(F)c(F)c2)C1 [Example 350, 1-((3S,4R)-4-(3,4-difluorophenyl)-1-(2-methoxyethyl)pyrrolidin-3-yl)-3-(1′-(2-hydroxyethyl)-4-methyl-1-phenyl-1H,1′H-[3,4′-bipyrazol]-5-yl)urea] is lower in IC50: 0.1 to 1 µM for the first, under 0.1 µM for the second.

COCCN1C[C@@H](NC(=O)Nc2c(C)c(-c3cnn(C)c3)nn2-c2ccc(F)cc2)[C@H](c2ccc(F)c(F)c2)C1 [Example 312, 1-((3S,4R)-4-(3,4-difluorophenyl)-1-(2-methoxyethyl)pyrrolidin-3-yl)-3-(1-(4-fluorophenyl)-1′,4-dimethyl-1H,1′H-[3,4′-bipyrazol]-5-yl)urea] and COCCN1C[C@@H](NC(=O)Nc2c(C)c(-c3cnn(C)c3)nn2-c2cccc(F)c2)[C@H](c2ccc(F)c(F)c2)C1 [Example 313, 1-((3S,4R)-4-(3,4-difluorophenyl)-1-(2-methoxyethyl)pyrrolidin-3-yl)-3-(1-(3-fluorophenyl)-1′,4-dimethyl-1H,1′H-[3,4′-bipyrazol]-5-yl)urea] cannot be ordered by IC50: under 0.1 µM for the first, under 0.1 µM for the second.

COCCN1C[C@@H](NC(=O)Nc2c(C)c(-c3cnn(C)c3)nn2-c2ccccc2F)[C@H](c2ccc(F)c(F)c2)C1 [Example 314, 1-((3S,4R)-4-(3,4-difluorophenyl)-1-(2-methoxyethyl)pyrrolidin-3-yl)-3-(1-(2-fluorophenyl)-1′,4-dimethyl-1H,1′H-[3,4′-bipyrazol]-5-yl)urea] and COCCN1C[C@@H](NC(=O)Nc2c(C)c(-c3cnn(CCOC)c3)nn2-c2ccccc2)[C@H](c2ccc(F)c(F)c2)C1 [Example 348, 1-((3S,4R)-4-(3,4-difluorophenyl)-1-(2-methoxyethyl)pyrrolidin-3-yl)-3-(1′-(2-methoxyethyl)-4-methyl-1-phenyl-1H,1′H-[3,4′-bipyrazol]-5-yl)urea] cannot be ordered by IC50: under 0.1 µM for the first, under 0.1 µM for the second.

First: COCCN1C[C@@H](NC(=O)Nc2c(C)c(-c3cnn(C)c3)nn2-c2ccc(F)cc2)[C@H](c2ccc(F)cc2)C1 [Example 318, 1-((3S,4R)-4-(4-fluorophenyl)-1-(2-methoxyethyl)pyrrolidin-3-yl)-3-(1-(4-fluorophenyl)-1′,4-dimethyl-1H,1′H-[3,4′-bipyrazol]-5-yl)urea]
Second: COCCN1C[C@@H](NC(=O)Nc2c(C)c(-c3cnn(C)c3)nn2-c2ccc(F)c(Cl)c2)[C@H](c2ccc(F)cc2)C1 [Example 322]
The IC50 of the first is higher: 0.1 to 1 µM for the first, under 0.1 µM for the second.

COCCN1C[C@@H](NC(=O)Nc2c(C)c(-c3cnn(C)c3)nn2-c2cccc(Cl)c2F)[C@H](c2ccc(F)cc2)C1 [Example 323] and COCCN1C[C@@H](NC(=O)Nc2c(C)c(-c3cnn(C)c3)nn2-c2ccccc2)[C@H](c2ccc(F)cc2F)C1 [Example 324, 1-((3S,4R)-4-(2,4-difluorophenyl)-1-(2-methoxyethyl)pyrrolidin-3-yl)-3-(1′,4-dimethyl-1-phenyl-1H,1′H-[3,4′-bipyrazol]-5-yl)urea] cannot be ordered by IC50: under 0.1 µM for the first, under 0.1 µM for the second.

COCCN1C[C@@H](NC(=O)Nc2c(C)c(-c3cnn(C)c3)nn2-c2ccccc2)[C@H](c2ccc(C)cc2)C1 [Example 327, 1-(1′,4-dimethyl-1-phenyl-1H,1′H-[3,4′-bipyrazol]-5-yl)-3-((3S,4R)-1-(2-methoxyethyl)-4-(p-tolyl)pyrrolidin-3-yl)urea] and COCCN1C[C@@H](NC(=O)Nc2c(C)c(-c3cnn(C)c3)nn2-c2ccccc2)[C@H](c2ccncc2F)C1 [Example 346, 1-(1′,4-dimethyl-1-phenyl-1H,1′H-[3,4′-bipyrazol]-5-yl)-3-((3S,4R)-4-(3-fluoropyridin-4-yl)-1-(2-methoxyethyl)pyrrolidin-3-yl)urea] cannot be ordered by IC50: under 0.1 µM for the first, under 0.1 µM for the second.

COCCN1C[C@@H](NC(=O)Nc2c(C)c(-c3ccccc3)nn2-c2ccccc2)[C@H](c2ccc(F)c(F)c2)C1 [Example 328, 1-((3S,4R)-4-(3,4-difluorophenyl)-1-(2-methoxyethyl)pyrrolidin-3-yl)-3-(4-methyl-1,3-diphenyl-1H-pyrazol-5-yl)urea] and COCCN1C[C@@H](NC(=O)Nc2c(C)c(-c3ccccc3)nn2-c2ccccc2)[C@H](c2cc(F)c(F)c(F)c2)C1 [Example 330, 1-((3S,4R)-4-(3,4,5-trifluorophenyl)-1-(2-methoxyethyl)pyrrolidin-3-yl)-3-(4-methyl-1,3-diphenyl-1H-pyrazol-5-yl)urea] cannot be ordered by IC50: under 0.1 µM for the first, under 0.1 µM for the second.

COCCN1C[C@@H](NC(=O)Nc2c(C)c(-c3ccccc3)nn2-c2ccccc2)[C@H](c2cc(F)cc(F)c2)C1 [Example 329, 1-((3S,4R)-4-(3,5-difluorophenyl)-1-(2-methoxyethyl)pyrrolidin-3-yl)-3-(4-methyl-1,3-diphenyl-1H-pyrazol-5-yl)urea] and COCCN1C[C@@H](NC(=O)Nc2c(C)c(-c3ccccc3)nn2-c2ccccc2)[C@H](c2ccc(F)cc2)C1 [Example 331, 1-((3S,4R)-4-(4-fluorophenyl)-1-(2-methoxyethyl)pyrrolidin-3-yl)-3-(4-methyl-1,3-diphenyl-1H-pyrazol-5-yl)urea] cannot be ordered by IC50: under 0.1 µM for the first, under 0.1 µM for the second.

First: COCCN1CC(c2cnn(C)c2)[C@H](NC(=O)Nc2c(Br)c(C)nn2-c2ccccc2)C1 (some centres unmarked) [Example 332]
Second: COCCN1C[C@@H](NC(=O)Nc2c(C)c(C)nn2-c2ccccc2)[C@H](c2cccc(C(F)(F)F)c2)C1 [Example 336, 1-(3,4-dimethyl-1-phenyl-1H-pyrazol-5-yl)-3-((3S,4R)-1-(2-methoxyethyl)-4-(3-(trifluoromethyl)phenyl)pyrrolidin-3-yl)urea]
The IC50 of the first is higher: 0.1 to 1 µM for the first, under 0.1 µM for the second.

COCCN1C[C@@H](NC(=O)Nc2c3c(nn2-c2ccccc2)CCC3)[C@H](c2cncc(F)c2)C1 [Example 337, 1-((3S,4R)-4-(5-fluoropyridin-3-yl)-1-(2-methoxyethyl)pyrrolidin-3-yl)-3-(2-phenyl-2,4,5,6-tetrahydrocyclopenta[c]pyrazol-3-yl)urea] and COCCN1C[C@H](NC(=O)Nc2c3c(nn2-c2ccccc2)CCC3)[C@@H](c2cncc(F)c2)C1 [Example 338, 1-((3R,4S)-4-(5-fluoropyridin-3-yl)-1-(2-methoxyethyl)pyrrolidin-3-yl)-3-(2-phenyl-2,4,5,6-tetrahydrocyclopenta[c]pyrazol-3-yl)urea] cannot be ordered by IC50: under 0.1 µM for the first, under 0.1 µM for the second.

First: COCCN1C[C@@H](NC(=O)Nc2c(C)c(OCCF)nn2-c2ccccc2)[C@H](c2cncc(F)c2)C1 [Example 339, 1-(3-(2-fluoroethoxy)-4-methyl-1-phenyl-1H-pyrazol-5-yl)-3-((3S,4R)-4-(5-fluoropyridin-3-yl)-1-(2-methoxyethyl)pyrrolidin-3-yl)urea]
Second: COCCN1C[C@H](NC(=O)Nc2c(C)c(OCCF)nn2-c2ccccc2)[C@@H](c2cncc(F)c2)C1 [Example 340, 1-(3-(2-fluoroethoxy)-4-methyl-1-phenyl-1H-pyrazol-5-yl)-3-((3R,4S)-4-(5-fluoropyridin-3-yl)-1-(2-methoxyethyl)pyrrolidin-3-yl)urea]
The IC50 of the first is lower: under 0.1 µM for the first, 0.1 to 1 µM for the second.

Work on COCCN1C[C@@H](NC(=O)Nc2c(C)c(C#N)nn2-c2ccccc2)[C@H](c2ccc(F)c(F)c2)C1 [Example 349, 1-(3-cyano-4-methyl-1-phenyl-1H-pyrazol-5-yl)-3-((3S,4R)-4-(3,4-difluorophenyl)-1-(2-methoxyethyl)pyrrolidin-3-yl)urea] yielded an IC50 of under 0.1 µM.
